These are literature values, as cited in patent US10918627B2, “Convergent and enantioselective total synthesis of Communesin analogs” (Massachusetts Institute of Technology, priority 2016, dated 2021).

Converted amounts (≈) assume the structure as drawn.

Series [1] has as its system third instar larvae of silkworms. Particulars: Hayashi 2004.
For series [2] the following is noted: Fan 2015.
The subject of series [3] is bradycardia caused by astemidazole. The conditions noted are these: at different concentrations, Fan 2015.
The test system of series [4] is mouse P-388 lymphocytic leukemia cells. Particulars: cultured mouse P-388 lymphocytic leukemia cells; Numata 1993.
For the next series, the system named is cardiovascular vessels. The conditions noted are these: Fan 2015.
For series [5], the system named is brine shrimp Artemia salina. The conditions noted are these: Jadulco 2004.
Series [6] deals with human leukemia cell lines. Particulars: array of human leukemia cell lines; Jadulco 2004.

On to `CC(=O)N1CC[C@@]23c4ccccc4N[C@@H]4N(C)c5cccc6c5[C@@]42CCN([C@@H]6C=C(C)C)[C@@H]13` [Compound 1, (−)-Communesin F], for which, in series [1], the “insecticidal activity (comparative, in words)” value (“insecticidal activity” for short) is on record as “lower insecticidal activities”.

For the compound `CC(=O)N1CC[C@@]23c4ccccc4N[C@@H]4N(C)c5cccc6c5[C@@]42CCN([C@@H]13)[C@@H]6[C@H]1OC1(C)C` [Compound 2, Communesin A], the “insecticidal activity” value in series [1] is “lower insecticidal activities”. In addition, the vasculogenetic activity result in series [2] is recorded as “moderate vasculogenetic activity”. Also, in series [3], the “mitigative effect on bradycardia” value is given as “significant mitigative effect”. In series [4], the ED50 cytotoxicity was 3.5 µg/mL (≈ 7.67 µM). Moreover, the “promotion of the function of cardiovascular vessels” value in the series on cardiovascular vessels was “moderately promote”.

On to `C/C=C/C=C/C(=O)N1CC[C@@]23c4ccccc4N[C@@H]4N(C)c5cccc6c5[C@@]42CCN([C@@H]13)[C@@H]6[C@H]1OC1(C)C` [Compound 4, Communesin B], for which, in series [1], the “insecticidal activity” value is recorded as “most active”. The LD50 insecticidal in series [1] (oral administration) is given as 5 μg/g of diet. The “mitigative effect on bradycardia” value in series [3] is reported as “significant mitigative effect”. Also, the ED50 cytotoxicity in series [4] was 0.45 µg/mL (≈ 0.885 µM). For the same compound, the LD50 toxicity in series [5] is 0.30 µg/mL. Besides, in series [6], the anti-proliferative activity entry is “moderate anti-proliferative activity”.

With `C/C=C/C=C/C(=O)N1CC[C@@]23c4ccccc4N[C@@H]4Nc5cccc6c5[C@@]42CCN([C@@H]13)[C@@H]6[C@H]1OC1(C)C` [Compound 5, communesin C], the LD50 toxicity in series [5] was 1.96 µg/mL. Also, in series [6], the anti-proliferative activity result is reported as “moderate anti-proliferative activity”.

Take `C/C=C/C=C/C(=O)N1CC[C@@]23c4ccccc4N[C@@H]4N(C=O)c5cccc6c5[C@@]42CCN([C@@H]13)[C@@H]6[C@H]1OC1(C)C` [Compound 6, communesin D]: the “insecticidal activity” value in series [1] is listed as “lower insecticidal activities”. In addition, the LD50 toxicity in series [5] is 0.57 µg/mL. In series [6], the anti-proliferative activity result is “moderate anti-proliferative activity”.

`CCC[C@H](O)CC(=O)N1CC[C@@]23c4ccccc4N[C@@H]4N(C)c5cccc6c5[C@@]42CCN([C@@H]13)[C@@H]6[C@H]1OC1(C)C` [Compound 9, communesin I]: in series [2], the vasculogenetic activity result is “moderate vasculogenetic activity”. The “mitigative effect on bradycardia” value in series [3] was “significant mitigative effect”. Moreover, in the series on cardiovascular vessels, the “promotion of the function of cardiovascular vessels” value was “moderately promote”.

As for Communesin E [Compound 3], in series [1], the “insecticidal activity” value is listed as “lower insecticidal activities”.
